Assay results taken from patent US4970077A, “6-substituted-4-hydroxytetrahydropyran-2-one derivatives and pharmaceutical compositions containing them” (Boehringer Mannheim GmbH, priority 1988, dated 1990).

Legend:
[1] = molecular target: T1, HMG-CoA reductase (Rattus norvegicus, UniProt P51639); assay: Inhibition of HMG-CoA reductase in a microsome fraction from rat liver; assay type: biochemical; conditions: rat liver microsomes; for HMG-CoA-reductase Inhibition in %: concentration not given, method: 10^-4 M or 10^-5 M
T1 construct: microsomes from rat livers; from tissue; host or cells: liver of cholestyramine-treated rats (reversed day/night rhythm), microsome fraction
T1 sequence (P51639 1-887): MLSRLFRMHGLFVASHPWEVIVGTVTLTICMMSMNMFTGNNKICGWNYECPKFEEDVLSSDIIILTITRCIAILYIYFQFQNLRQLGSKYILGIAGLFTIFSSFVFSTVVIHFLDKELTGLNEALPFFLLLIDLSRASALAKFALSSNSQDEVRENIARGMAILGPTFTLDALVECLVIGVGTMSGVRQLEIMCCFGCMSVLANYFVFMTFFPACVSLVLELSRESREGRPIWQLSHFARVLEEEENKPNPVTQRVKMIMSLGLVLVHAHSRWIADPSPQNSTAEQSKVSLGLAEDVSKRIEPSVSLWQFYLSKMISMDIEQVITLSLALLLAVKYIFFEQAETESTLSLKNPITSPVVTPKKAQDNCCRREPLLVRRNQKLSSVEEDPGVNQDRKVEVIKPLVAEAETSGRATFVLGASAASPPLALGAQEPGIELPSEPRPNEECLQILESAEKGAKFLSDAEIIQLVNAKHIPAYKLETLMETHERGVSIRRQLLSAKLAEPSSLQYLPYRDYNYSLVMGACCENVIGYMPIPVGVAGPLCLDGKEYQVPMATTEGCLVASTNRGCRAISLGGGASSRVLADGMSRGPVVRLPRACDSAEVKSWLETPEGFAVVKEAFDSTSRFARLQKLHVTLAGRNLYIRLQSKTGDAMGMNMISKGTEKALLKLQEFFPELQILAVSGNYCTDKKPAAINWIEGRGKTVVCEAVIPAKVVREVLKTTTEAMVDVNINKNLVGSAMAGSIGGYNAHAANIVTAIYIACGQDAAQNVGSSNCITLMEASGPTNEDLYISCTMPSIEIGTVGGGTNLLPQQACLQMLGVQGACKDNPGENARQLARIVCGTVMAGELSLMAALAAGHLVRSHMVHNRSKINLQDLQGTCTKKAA
Excerpt: Inhibition of HMG-CoA reductase in a microsome fraction from rat liver
For the determination of the HMG-CoA reductase activity, microsomes from rat livers, which had been treated for 7 days in the case of reversed day/night rhythm with cholestyramine, were separated by centrifuging. The action of the test compounds at a concentration of 10^-4 M or 10^-5 M on the formation of mevalonate from (S,R) ^14 C--HMG--CoA was investigated. The experimental conditions are described in detail by J. Huber. S. Latzien and B. Hamprecht, Hoppe-Seylers Z. Physiol. Chem., 354, 1654/1973.

[2] = tested on: HMG-CoA reductase; conditions: literature: Endo 1976; Alberts 1980; cited from earlier work

HMG-CoA-reductase Inhibition in % [1]	Structure (SMILES)	competitive inhibition of HMG-CoA reductase (in words) [2]	other results
93%	O=C1C[C@H](O)C[C@@H](/C=C/c2c(Cl)cccc2C2CCCCCC2)O1 (relative stereo) [2 (b)]	–	–
90%	O=C1C[C@H](O)C[C@@H](/C=C/c2c(Cl)cc(Cl)cc2C2CCCCC2)O1 (relative stereo) [2 (c)]	–	–
95%	O=C1C[C@H](O)C[C@@H](/C=C/c2c(Cl)cc(Cl)cc2C2CCCCCC2)O1 (relative stereo) [2 (a)]	–	–

Continued, compound first:

Structure (SMILES)	HMG-CoA-reductase Inhibition in % [1]	competitive inhibition of HMG-CoA reductase (in words) [2]	other results
CC[C@H](C)C(=O)O[C@H]1CCC=C2C=C[C@H](C)[C@H](CC[C@@H]3C[C@@H](O)CC(=O)O3)[C@H]21 [compactin A]	–	competitively to inhibit HMG-CoA reductase	–
O=C1C[C@H](O)C[C@@H](/C=C/c2ccccc2C2=CCCCC2)O1 (relative stereo) [2 (i)]	–	–	inhibition at 100 µM ([1]; 10^-4 M): 63%
CC[C@H](C)C(=O)O[C@H]1C[C@@H](C)C=C2C=C[C@H](C)[C@H](CC[C@@H]3C[C@@H](O)CC(=O)O3)[C@H]21 [mevinolin]	–	competitively to inhibit HMG-CoA reductase	–
